Test results published in the supplement of paper PMC10307832.

Assays:
Assay in all cases: relative viability (nuclei count vs DMSO), 5 days (fraction); higher = more cells survive
[1] = compound: CN(NC(=O)CC(=O)NN(C)C(=S)c1ccccc1)C(=S)c1ccccc1 [Elesclomol] + N=C(N)NC(=N)NCCc1ccccc1 [Phenformin] (partner 250 µM)
Procedure, shortened: (§1)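 For relative viability, nuclei counts in treated wells were divided by those in vehicle wells. Lung cancer cell lines had been pin-tool dosed in 1536-well plates the day after seeding and cultured for 5 days, then fixed and stained in one step (final 0.05% Triton X-100, 1% formaldehyde, 1 ug/ml Hoechst) and imaged at 4×. Doses were one drug alone or a fixed anchor-drug dose plus five library-drug doses (not always all listed) in √10 steps, and values are duplicate-plate medians.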

[2] = compound: CN(NC(=O)CC(=O)NN(C)C(=S)c1ccccc1)C(=S)c1ccccc1 [Elesclomol] + C[C@@H](Oc1cc(-c2cnn(C3CCNCC3)c2)cnc1N)c1c(Cl)ccc(F)c1Cl [Crizotinib] (partner 1 µM)
Procedure, shortened: as §1

[3] = compound: CN(NC(=O)CC(=O)NN(C)C(=S)c1ccccc1)C(=S)c1ccccc1 [Elesclomol] + COc1cc2c(Oc3ccc(NC(=O)C4(C(=O)Nc5ccc(F)cc5)CC4)cc3F)ccnc2cc1OCCCN1CCOCC1 [Foretinib] (partner 0.25 µM)
Procedure, shortened: as §1

[4] = compound: CN(NC(=O)CC(=O)NN(C)C(=S)c1ccccc1)C(=S)c1ccccc1 [Elesclomol] + C[C@]1(O)C[C@@H](c2nc(-c3ccc4ccc(-c5ccccc5)nc4c3)c3c(N)nccn32)C1 [Linsitinib] (partner 1 µM)
Procedure, shortened: as §1

[5] = compound: CN(NC(=O)CC(=O)NN(C)C(=S)c1ccccc1)C(=S)c1ccccc1 [Elesclomol]
Procedure, shortened: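 On vehicle-anchored 1536-well plates, lung cancer cell lines held overnight at 37 °C were pinned with five library-drug doses (not always all listed) spaced by √10. With no medium change over 5 days, they were then fixed, permeabilised and Hoechst-stained in one step and imaged at 4×. MetaXpress counted nuclei, and viability is the median across plates of treated-well over vehicle-well nuclei. Acceptance needed control CV below 25% and at least one doubling.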

Cell Line | relative viability ([1]; first compound 0.003162 µM) | relative viability ([1]; first compound 0.01 µM) | relative viability ([1]; first compound 0.03162 µM) | relative viability ([1]; first compound 0.1 µM) | relative viability ([2]; first compound 0.003162 µM) | relative viability ([2]; first compound 0.01 µM) | relative viability ([2]; first compound 0.03162 µM) | relative viability ([2]; first compound 0.1 µM) | relative viability ([3]; first compound 0.003162 µM) | relative viability ([3]; first compound 0.01 µM) | relative viability ([3]; first compound 0.03162 µM) | relative viability ([3]; first compound 0.1 µM) | relative viability ([4]; first compound 0.003162 µM) | relative viability ([4]; first compound 0.01 µM) | relative viability ([4]; first compound 0.03162 µM) | relative viability ([4]; first compound 0.1 µM) | relative viability ([5]; 0.003162 µM) | relative viability ([5]; 0.01 µM) | relative viability ([5]; 0.03162 µM) | relative viability ([5]; 0.1 µM)
NCI-H647 | 0.546 | 0.234 | 0.104 | 0.0401 | 1.1 | 0.813 | 0.39 | 0.0391 | 1.05 | 0.973 | 0.359 | 0.0921 | 1.1 | 0.801 | 0.753 | 0.0738 | 1 | 0.617 | 0.377 | 0.062
NCI-H2009 | 0.344 | 0.239 | 0.243 | 0.107 | 1.06 | 0.644 | 0.137 | 0.109 | 1.2 | 0.97 | 0.207 | 0.171 | 1.25 | 0.677 | 0.183 | 0.142 | 0.889 | 0.416 | 0.164 | 0.124
EPLC-272H | 0.293 |  | 0.291 | 0.172 | 1.03 |  | 0.837 | 0.135 | 0.67 |  | 0.672 | 0.0988 | 1.25 |  | 1.05 | 0.26 | 0.876 | 0.514 | 0.534 | 0.128
NCI-H520 | 0.555 | 0.535 | 0.61 | 0.105 | 0.69 | 0.713 | 0.233 | 0.0848 | 0.757 | 0.771 | 0.251 | 0.111 | 1.04 | 0.912 | 0.354 | 0.0801 | 1.03 | 0.87 | 0.584 | 0.134
NCI-H2405 | 0.39 | 0.335 | 0.335 | 0.366 | 0.785 | 0.565 | 0.306 | 0.307 | 1.04 | 0.663 | 0.336 | 0.292 | 0.899 | 0.315 | 0.26 | 0.27 | 1.08 | 0.581 | 0.362 | 0.384
NCI-H2085 | 0.676 | 0.588 | 0.512 | 0.305 | 0.881 | 0.495 | 0.339 | 0.226 | 1.09 | 0.658 | 0.462 | 0.271 | 0.786 | 0.596 | 0.432 | 0.247 | 0.998 | 0.873 | 0.569 | 0.385
NCI-H322M | 0.769 | 0.32 | 0.47 | 0.0999 | 0.911 |  | 0.98 | 0.552 | 0.837 | 0.656 | 0.356 | 0.26 | 0.977 |  | 0.916 | 0.606 | 0.893 | 0.29 | 0.363 | 0.266
NCI-H1944 | 0.216 | 0.169 | 0.212 | 0.201 | 1.07 | 1.06 | 1 | 1.01 | 0.93 | 0.868 | 0.838 | 0.358 | 1.14 | 1.18 | 1.12 | 1.13 | 1.05 | 0.948 | 0.959 | 0.578
LC-2-ad | 0.514 | 0.271 | 0.269 | 0.331 | 0.423 | 0.251 | 0.194 | 0.238 | 0.697 | 0.411 | 0.267 | 0.286 | 0.91 | 0.761 | 0.117 | 0.112 | 0.963 | 0.568 | 0.241 | 0.19
NCI-H358 | 0.305 | 0.158 | 0.148 | 0.166 | 0.215 | 0.151 | 0.204 | 0.171 | 0.261 | 0.182 | 0.106 | 0.1 | 0.279 | 0.234 | 0.152 | 0.156 | 0.752 | 0.225 | 0.215 | 0.196
NCI-H2170 | 0.39 | 0.402 | 0.376 | 0.341 | 1.26 | 0.956 | 1.17 | 0.653 | 1.02 | 1.03 | 0.977 | 0.764 |  |  |  |  | 0.967 | 0.938 | 0.986 | 0.657
A-427 | 0.342 | 0.216 | 0.319 | 0.104 | 0.959 | 0.744 | 0.895 | 0.277 | 0.981 | 0.956 | 0.917 | 0.157 | 1.1 | 1.08 | 1.14 | 0.578 | 0.963 | 0.554 | 0.529 | 0.18
NCI-H1666 | 0.566 | 0.554 | 0.494 | 0.476 | 0.745 | 0.271 | 0.235 | 0.15 | 1.06 | 0.88 | 0.621 | 0.509 | 0.833 | 0.358 | 0.321 | 0.202 | 1.01 | 0.933 | 0.755 | 0.542
LOU-NH91 | 0.754 | 0.571 | 0.419 | 0.439 | 0.735 | 0.706 | 0.616 | 0.57 | 0.902 | 0.868 | 0.862 | 0.807 | 0.925 | 0.856 | 0.703 | 0.542 | 1.06 | 0.856 | 0.798 | 0.764
ABC-1 | 0.239 | 0.22 | 0.224 | 0.17 | 0.195 | 0.136 | 0.223 | 0.289 | 0.255 | 0.221 | 0.259 | 0.215 | 0.267 | 0.207 | 0.308 | 0.212 | 0.239 | 0.252 | 0.201 | 0.328
NCI-H1651 | 0.321 | 0.257 | 0.151 | 0.1 | 0.81 | 0.833 | 0.951 | 0.531 | 0.727 | 0.436 | 0.0766 | 0.0932 | 0.748 | 0.673 | 0.193 | 0.111 | 0.903 | 0.954 | 0.612 | 0.369
